Mass density data for 1 molecule are collected here from the NIST ThermoML archive (doi:10.1016/j.tca.2009.05.015).

For the data set the following is noted: 293 K; 101.33 kPa; Crystal; X-ray diffraction.

± gives the expanded uncertainty stated by the source.

Take `CCCCCCCCCCCCN.Cl` [dodecanamine hydrochloride]: the mass density came out at 1022 ± 2 kg/m3.

As a reminder, the mass density is the mass of a sample divided by its volume.
